Reference: patent US20090215775A1, “Sulphonamido-Substituted Cyclohexyl Sulphones for Treatment of Cancer” (priority 2005, published 2009)

Test system: Cells expressing Notch (ALL-SIL, DND-41, HPB-ALL or TALL-1)
Assay: Assay for Cell Cycle Arrest (propidium iodide, FACS)
Type: cell-based
Conditions: concentrations up to 10 μM; incubation typically 4-8 days; in comparison to untreated controls
Method: Cells expressing Notch (ALL-SIL, DND-41, HPB-ALL or TALL-1) (Weng et al, Science, 306 (2004), 269-71) are incubated in the presence or absence of a compound of the instant invention (e.g. the compound of Example 47 below) at concentrations up to 10 μM. At the end of the incubation (typically 4-8 days), the cells are collected, fixed in 70% ethanol on ice for >2 hours, washed, then labelled for 15 min at 37° C. with propidium iodide (0.2 mg/ml) (PI) in the presence of 0.1% Triton X100 and 0.2 mg/ml RNase and subjected to FACS analysis.

O=S(=O)(N[C@H]1CC[C@@](c2cc(F)ccc2F)(S(=O)(=O)c2ccc(Cl)cc2)CC1)C(F)(F)F [Example 47, trifluoromethanesulfonic acid, N-[4-(4-chlorobenzenesulfonyl)-4-(2,5-difluorophenyl)-cyclohexyl]-amide]
G2- and S-phase populations (FACS analysis): severe loss of G2- and S-phase populations
